Some test systems named below: NCI-H522; RXF 393; HCT-15; TK-10; CAKI-1; T47D; SK-MEL-2; IGROV-1; EKVX; MCF7; MDA-MB-435; 786-0; HT-29; NCI-H460; OVCAR-4; KM12; BT-549; RPMI-8226; SF-539; HOP-92.
Assay in all cases: DTP human tumour cell line panel, 48 h

SMILES strings stand for the structures.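 Compound exposure: 48 hours, 5 concentrations, 96-well plates. Here, GI50 denotes the concentration required for 50% inhibition of growth.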 Activity calls are given as the source filed them. Cut-off read from the data, not from the text of the source: active = GI50 up to about 1.1 µM and inactive = higher.

The GI50 is the concentration giving 50% growth inhibition. On to `C/C(=C\CO)CC/C=C(\C)CNc1c(F)c(F)c(F)c(F)c1F`, for which the GI50 with NCI-H522 is 18.4 µM (inactive); with RXF 393 it was 24.8 µM (inactive); with HCT-15, 30.2 µM; in the experiment with TK-10, 29.5 µM (inactive); with CAKI-1 it was 33.3 µM (inactive); in the experiment on T47D, 61.2 µM (inactive). The GI50 in the experiment with SK-MEL-2 was 20.7 µM (inactive); with IGROV-1 it was 49.5 µM (inactive); in the experiment with EKVX, 30.7 µM (inactive); in the experiment with MCF7 it was 29.2 µM (inactive); with MDA-MB-435, 22.9 µM (inactive); in the experiment with 786-0, 44.1 µM (inactive). In addition, the GI50 in the experiment on HT-29 was 24 µM (inactive); in the experiment with NCI-H460, 36.1 µM (inactive); in the experiment on OVCAR-4, 44.5 µM (inactive); with KM12, 27.5 µM (inactive); with BT-549, 6.4 µM (inactive); in the experiment on RPMI-8226, 14 µM (inactive). In the experiment with SF-539, the GI50 was 20.8 µM (inactive).

For the compound `Oc1ccc(Oc2cc3c(cc2Oc2ccc(O)cc2)-c2nc-3nc3[nH]c(nc4nc(nc5[nH]c(n2)c2cc(Oc6ccc(O)cc6)c(Oc6ccc(O)cc6)cc52)-c2cc(Oc5ccc(O)cc5)c(Oc5ccc(O)cc5)cc2-4)c2cc(Oc4ccc(O)cc4)c(Oc4ccc(O)cc4)cc32)cc1`, the GI50 with HOP-92 is > 100 µM (inactive); with NCI-H522, > 100 µM (inactive); with HCT-15 it was over 100 µM; with TK-10, > 100 µM (inactive); in the experiment with CAKI-1, > 100 µM (inactive); with T47D, > 100 µM (inactive). Further, the GI50 with IGROV-1, in the experiment with EKVX, in the experiment on MCF7, in the experiment on MDA-MB-435, in the experiment on 786-0 and in the experiment with HT-29 was > 100 µM (inactive) each time. Also, the GI50 is > 100 µM (inactive) in the experiment with NCI-H460; 35.7 µM (inactive) in the experiment with OVCAR-4; > 100 µM (inactive) in the experiment with KM12; > 100 µM (inactive) with BT-549; > 100 µM (inactive) in the experiment with SF-539.

For the compound `CN(/N=C/C=N/N(C)C1=NCCN1)C1=NCCN1`, the GI50 in the experiment with HOP-92 was > 100 µM (inactive); in the experiment on NCI-H522, > 100 µM (inactive); in the experiment on HCT-15 it was over 100 µM; in the experiment with TK-10 it was > 100 µM (inactive); in the experiment with CAKI-1 it was > 100 µM (inactive); in the experiment with T47D it was > 100 µM (inactive). In addition, the GI50 with IGROV-1, with EKVX, in the experiment on MCF7, in the experiment on MDA-MB-435, in the experiment on 786-0 and in the experiment with HT-29 was > 100 µM (inactive) in each case. In addition, the GI50 with NCI-H460, in the experiment on OVCAR-4, in the experiment with KM12, in the experiment on BT-549 and in the experiment with SF-539 was > 100 µM (inactive) throughout.

Consider `CCOC(=O)C(=O)/C(=C/NC(=S)c1ccncc1)C(=O)OCC`, for which the GI50 in the experiment on NCI-H522 was > 100 µM (inactive); in the experiment on RXF 393, > 100 µM (inactive); with HCT-15, over 100 µM; with CAKI-1, > 100 µM (inactive); in the experiment on T47D it was > 100 µM (inactive); with SK-MEL-2 it was > 100 µM (inactive). The GI50 in the experiment with IGROV-1, in the experiment with EKVX, with MCF7, in the experiment with MDA-MB-435, in the experiment on 786-0 and in the experiment on HT-29 was > 100 µM (inactive) throughout. The GI50 in the experiment on NCI-H460, in the experiment with OVCAR-4, with KM12, in the experiment with BT-549, in the experiment on RPMI-8226 and in the experiment with SF-539 was > 100 µM (inactive) throughout.

On to `OCCCSCCO`, for which the GI50 in the experiment with HOP-92 was > 100 µM (inactive); in the experiment with NCI-H522, > 100 µM (inactive); with HCT-15, over 100 µM; in the experiment with TK-10, > 100 µM (inactive); with CAKI-1 it was > 100 µM (inactive); in the experiment with T47D it was > 100 µM (inactive). The GI50 with SK-MEL-2, with IGROV-1, with EKVX, in the experiment on MCF7, with MDA-MB-435 and in the experiment on 786-0 was > 100 µM (inactive) each time. In addition, the GI50 in the experiment on HT-29, with NCI-H460, in the experiment with OVCAR-4, in the experiment on KM12, in the experiment on BT-549 and in the experiment on RPMI-8226 was > 100 µM (inactive) in each case. Moreover, in the experiment on SF-539, the GI50 was > 100 µM (inactive).

Regarding `O=C(NCP(=O)(Oc1ccccc1)Oc1ccccc1)OCc1ccccc1`, the GI50 was 38.7 µM (inactive) in the experiment with HOP-92; 83.6 µM (inactive) with NCI-H522; over 100 µM in the experiment on HCT-15; > 100 µM (inactive) in the experiment with TK-10; > 100 µM (inactive) in the experiment on CAKI-1; > 100 µM (inactive) with T47D. The GI50 is > 100 µM (inactive) in the experiment on SK-MEL-2; > 100 µM (inactive) in the experiment with IGROV-1; > 100 µM (inactive) in the experiment with EKVX; > 100 µM (inactive) with MCF7; > 100 µM (inactive) in the experiment on MDA-MB-435; 53.2 µM (inactive) in the experiment with 786-0. For the same compound, the GI50 was > 100 µM (inactive) with HT-29; > 100 µM (inactive) in the experiment on NCI-H460; 45.3 µM (inactive) in the experiment on OVCAR-4; > 100 µM (inactive) in the experiment with KM12; > 100 µM (inactive) in the experiment with BT-549; > 100 µM (inactive) in the experiment on RPMI-8226.

As to `Cc1ccc2c(=O)c(-c3n[nH]c(=S)s3)c[nH]c2n1`, the GI50 was 82.8 µM (inactive) in the experiment on NCI-H522; > 100 µM (inactive) in the experiment on RXF 393; over 100 µM in the experiment on HCT-15; > 100 µM (inactive) with TK-10; > 100 µM (inactive) with CAKI-1; > 100 µM (inactive) in the experiment with T47D. Further, the GI50 in the experiment on SK-MEL-2, in the experiment on IGROV-1, in the experiment on EKVX, in the experiment with MCF7, in the experiment on MDA-MB-435 and in the experiment on 786-0 was > 100 µM (inactive) throughout. The GI50 with HT-29, in the experiment with NCI-H460, with OVCAR-4, in the experiment on KM12, in the experiment with BT-549 and in the experiment with RPMI-8226 was > 100 µM (inactive) throughout.

For `C1CSCCSCCCSC2CCCCC2SC1` (stereo not drawn), the GI50 in the experiment on HOP-92 was 34.4 µM (inactive); in the experiment with NCI-H522, > 100 µM (inactive); in the experiment with HCT-15 it was over 100 µM; in the experiment with TK-10, > 100 µM (inactive); in the experiment on T47D it was > 100 µM (inactive); in the experiment on IGROV-1, > 100 µM (inactive). In addition, the GI50 with EKVX was > 100 µM (inactive); in the experiment on MCF7, > 100 µM (inactive); with MDA-MB-435 it was > 100 µM (inactive); with 786-0 it was > 100 µM (inactive); in the experiment with HT-29 it was 25.4 µM (inactive); in the experiment on NCI-H460 it was > 100 µM (inactive). Moreover, the GI50 in the experiment with OVCAR-4 was > 100 µM (inactive); with KM12, > 100 µM (inactive); with BT-549, > 100 µM (inactive); in the experiment on RPMI-8226, 45.4 µM (inactive); in the experiment on SF-539, > 100 µM (inactive).

In the case of `O=C(O)c1ccccc1CC1Cc2cc3c(cc2C1)CCC3`, the GI50 was > 100 µM (inactive) in the experiment with NCI-H522; 89.1 µM (inactive) in the experiment with RXF 393; 99.3 µM in the experiment on HCT-15; > 100 µM (inactive) in the experiment on TK-10; 33 µM (inactive) with T47D; > 100 µM (inactive) with SK-MEL-2. The GI50 with IGROV-1, with EKVX, with MCF7, in the experiment on MDA-MB-435, with 786-0 and in the experiment on HT-29 was > 100 µM (inactive) in each case. The GI50 in the experiment on NCI-H460 was > 100 µM (inactive); in the experiment on OVCAR-4, 80.5 µM (inactive); in the experiment with KM12 it was > 100 µM (inactive); in the experiment on BT-549, > 100 µM (inactive); with RPMI-8226 it was 88.3 µM (inactive); with SF-539 it was > 100 µM (inactive).

With `COc1ccc(N2C(=O)C3c4[nH]c5ccc(C)cc5c4C4CCC(C(C)C)CC4C3C2=O)cc1` (stereo not drawn), the GI50 is > 100 µM (inactive) in the experiment on HOP-92; > 100 µM (inactive) in the experiment with NCI-H522; over 100 µM with HCT-15; > 100 µM (inactive) with TK-10; > 100 µM (inactive) in the experiment on CAKI-1; > 100 µM (inactive) with T47D. Also, the GI50 in the experiment with SK-MEL-2, with IGROV-1, in the experiment with EKVX, in the experiment on MCF7, in the experiment on MDA-MB-435 and in the experiment on 786-0 was > 100 µM (inactive) throughout. Also, the GI50 in the experiment on HT-29, with NCI-H460, in the experiment on OVCAR-4, with KM12, in the experiment with BT-549 and with RPMI-8226 was > 100 µM (inactive) each time.

In the case of `CC(=O)Oc1cc(S(=O)(=O)Nc2nc(N)n[nH]2)c(S)cc1Cl`, the GI50 is > 100 µM (inactive) in the experiment with HOP-92; > 100 µM (inactive) in the experiment on NCI-H522; over 100 µM in the experiment on HCT-15; > 100 µM (inactive) with TK-10; > 100 µM (inactive) in the experiment on CAKI-1; > 100 µM (inactive) in the experiment with T47D. The GI50 in the experiment on SK-MEL-2, in the experiment on IGROV-1, in the experiment with EKVX, in the experiment with MCF7, in the experiment with MDA-MB-435 and with 786-0 was > 100 µM (inactive) each time. Moreover, the GI50 with HT-29, with NCI-H460, in the experiment on OVCAR-4, with KM12, in the experiment on BT-549 and in the experiment on RPMI-8226 was > 100 µM (inactive) throughout. In the experiment with SF-539, the GI50 is > 100 µM (inactive).

These data come from ChEMBL document CHEMBL1201862, “PubChem BioAssay data set” (2004).
